Assay: Estrogen receptor binding affinity using [3H]estradiol in a competitive radioreceptor binding assay.

| Compound | relative binding affinity (RBA) |
| --- | --- |
| CCC(c1ccc(O)cc1)C(COCCOCCCl)c1ccc(O)cc1 (stereo unspecified) | 6.7 |
| CCC(c1ccc(O)cc1)C(CO)c1ccc(O)cc1 (stereo unspecified) | 8.9 |
| CCC(c1ccc(O)cc1)C(CC)c1ccc(O)c(CCCOC)c1 (stereo unspecified) | 13.2 |
| CCC(c1ccc(O)cc1)C(CC)c1ccc(O)c(CCCNc2ccc([N+](=O)[O-])c3nonc23)c1 (stereo unspecified) | 1.5 |
| CCC(c1ccc(O)cc1)C(CSCCNc1ccc([N+](=O)[O-])c2nonc12)c1ccc(O)cc1 (stereo unspecified) | 0.85 |
| CCC(c1ccc(O)cc1)C(CC)c1ccc(O)c(CCCOCc2ccccc2)c1 (stereo unspecified) | 5 |
| CCC(c1ccc(O)cc1)C(CSCCCCCCCN1C(=O)c2ccccc2C1=O)c1ccc(O)cc1 (stereo unspecified) | 1.6 |
| CCC(c1ccc(O)cc1)C(CC)c1ccc(O)c(CCCOc2ccc([N+](=O)[O-])cc2[N+](=O)[O-])c1 (stereo unspecified) | 1.7 |
| CCC(c1ccc(O)cc1)C(CC)c1ccc(O)c(I)c1 (stereo unspecified) | 37 |
| CCC(c1ccc(O)cc1)C(C(=O)OC)c1ccc(O)cc1 (stereo unspecified) | 69 |
| C=CCc1cc(C(CC)C(CC)c2ccc(O)cc2)ccc1O (stereo unspecified) | 54 |
| CCC(c1ccc(O)cc1)C(CI)c1ccc(O)cc1 (stereo unspecified) | 172 |
| CCC(c1ccc(O)cc1)C(CC)c1ccc(O)c(CCCN2C(=O)c3cccc(N)c3C2=O)c1 (stereo unspecified) | 7.4 |
| CCC(c1ccc(O)cc1)C(CC)c1ccc(O)c(CCCN2C(=O)c3cccc([N+](=O)[O-])c3C2=O)c1 (stereo unspecified) | 3 |
| CCC(c1ccc(O)cc1)C(CSCCCCCCCNc1ccc([N+](=O)[O-])c2nonc12)c1ccc(O)cc1 (stereo unspecified) | 3.4 |
| CCC(c1ccc(O)cc1)C(CC)c1ccc(O)c(CCCNS(=O)(=O)c2cccc3c(N(C)C)cccc23)c1 (stereo unspecified) | 1.3 |
| CCC(c1ccc(O)cc1)C(CSCCCCCNc1ccc([N+](=O)[O-])c2nonc12)c1ccc(O)cc1 (stereo unspecified) | 3.5 |
| CCC(c1ccc(O)cc1)C(CC)c1ccc(O)c(CCCNc2ccc([N+](=O)[O-])cc2[N+](=O)[O-])c1 (stereo unspecified) | 1 |

| Compound | relative binding affinity (RBA) |
| --- | --- |
| CCC(c1ccc(O)cc1)C(CSCCCNc1ccc([N+](=O)[O-])c2nonc12)c1ccc(O)cc1 (stereo unspecified) | 4.3 |
| CCC(c1ccc(O)cc1)C(CC(=O)OC)c1ccc(O)cc1 (stereo unspecified) | 20 |
| CCCCSCC(c1ccc(O)cc1)C(CC)c1ccc(O)cc1 (stereo unspecified) | 61.6 |
| CCC(c1ccc(O)cc1)C(CCO)c1ccc(O)cc1 (stereo unspecified) | 16.2 |
| CCCCCOC(=O)C(c1ccc(O)cc1)C(CC)c1ccc(O)cc1 (stereo unspecified) | 39 |
| CCCCCOC(=O)CC(c1ccc(O)cc1)C(CC)c1ccc(O)cc1 (stereo unspecified) | 4.2 |
| CCCCSCCC(c1ccc(O)cc1)C(CC)c1ccc(O)cc1 (stereo unspecified) | 23.4 |
| CCC(c1ccc(O)cc1)C(CC)c1ccc(O)c(N=[N+]=[N-])c1 (stereo unspecified) | 69 |
| CCC(c1ccc(O)cc1)C(CCI)c1ccc(O)cc1 (stereo unspecified) | 60 |
| CCC(c1ccc(O)cc1)C(C)c1ccc(O)cc1 (stereo unspecified) | 133 |
| CCC(c1ccc(O)cc1)C(CCOCCOCCCl)c1ccc(O)cc1 (stereo unspecified) | 16.6 |
| CCC(c1ccc(O)cc1)C(CC)c1ccc(O)c(CCCO)c1 (stereo unspecified) | 12 |
| CCC(c1ccc(O)cc1)C(CC)c1ccc(O)c(CCCN2C(=O)c3ccccc3C2=O)c1 (stereo unspecified) | 5.4 |
| CCC(c1ccc(O)cc1)C(CSCCCCN1C(=O)c2ccccc2C1=O)c1ccc(O)cc1 (stereo unspecified) | 3.6 |
| CCC(c1ccc(O)cc1)C(CSCCCCCCCNS(=O)(=O)c1cccc2c(N(C)C)cccc12)c1ccc(O)cc1 (stereo unspecified) | 2.6 |
| CCC(c1ccc(O)cc1)C(CSCCCCNc1ccc([N+](=O)[O-])c2nonc12)c1ccc(O)cc1 (stereo unspecified) | 3.9 |
| CCC(c1ccc(O)cc1)C(CSCCCCCCNc1ccc([N+](=O)[O-])c2nonc12)c1ccc(O)cc1 (stereo unspecified) | 2.9 |
| CCCCSCCCc1cc(C(CC)C(CC)c2ccc(O)cc2)ccc1O (stereo unspecified) | 3.6 |
